# Results taken from US20030144237A1, “Use of inhibition of a gas6 function or of a gas6 receptor for preventing and treating a cardiovascular disease” (priority 2000, published 2003).
# How the values were obtained:
# [1] = system: Gas6+/+ platelets; assay: Platelet ATP release (dense granule secretion), Lumi-aggregometer, Gas6+/+ platelets; type: cell-based, mice; design: unit not given here; settings: mean±SEM of three experiments
# Procedure: (§1) Platelet aggregation and, ATP secretion were measured in an optical Chronolog Lumi-aggregometer (Coulter Electronics Ltd), using 280 μl PRP, adjusted to a concentration of 250,000 platelets/μl with PPP as a diluent. Platelet aggregation was measured as described in example 4. Platelet ATP release was monitored by adding firely luciferase and luciferin to all samples and comparing luminescence created by platelet ATP release to that generated by addition of an ATP standard (Chrono-Lume, Kordia). Aggregation and ATP release in response to collagen (equine collagen from Hormon Chemie), ADP, or the thromboxane A2 mimetic U46619 were studied. Platelet aggregation and ATP secretion in response to thrombin were performed with washed platelets in an optical Chronolog Lumi-aggregometer as described above.
# [2] = system: Gas6−/− platelets; assay: Platelet ATP release (dense granule secretion), Lumi-aggregometer, Gas6−/− platelets; type: cell-based, mice; design: unit not given here; settings: mean±SEM of three experiments
# Procedure: as §1
# [3] = system: Platelets from Gas6+/+ mice; assay: Platelet aggregation (turbidimetric, Chronolog aggregometer), Gas6+/+ platelets; type: cell-based; settings: for platelet aggregation in response to PMA, A23187 or thrombin: FIG. 2, thrombin with washed platelets; for platelet aggregation in response to agonist (dose dependence): platelet-rich plasma, FIG. 1a-j
# Procedure: (§2) Blood was centrifuged at 100 g for 10 minutes, allowing separation of platelet-rich plasma (PRP). Platelet-poor plasma (PPP) was obtained by centrifugation of the remaining blood at 2,000 g for 10 minutes. PRP and PPP were pooled from four Gas6^−/− or Gas6^+/+ mice. Platelet aggregation was measured turbidimetrically in an optical Chronolog aggregometer (model 490, Coulter Electronics Ltd), using 280 μl PRP, adjusted to a concentration of 250,000 platelets/μl with PPP as a diluent. PPP also served as 100% reference for aggregation. Aggregation in response to collagen (equine collagen from Hormon Chemie), ADP or the thromboxane A2 mimetic U46619 was studied.
# (§3) Aggregation in response to thrombin was performed with washed platelets. […] Apyrase was added to PRP at a final concentration of 1 u/ml. Platelets were then washed by adding 2 volumes ACD and pelleted by centrifugation at 2,000 g for 10 minutes. Platelet pellet was resuspended in Tyrode's buffer containing 1% BSA and final platelet suspension was adjusted to 200,000 platelets/μl and kept at 37° C. Platelet aggregation was measured with an optical Chronolog aggregometer as described above.
# [4] = system: platelets from Gas6−/− mice; assay: Platelet aggregation (turbidimetric, Chronolog aggregometer), Gas6−/− platelets; type: cell-based; settings: for platelet aggregation in response to PMA, A23187 or thrombin: FIG. 2, thrombin with washed platelets; for irreversible platelet aggregation at higher agonist concentrations: ADP 50 μM, collagen 5-15 μg/ml, U46619 100 μM; for irreversible platelet aggregation at low agonist concentrations: ADP <10 μM, collagen 2 μg/ml, U46619 10 μM, only shape change
# Procedure: as §2, §3
# [5] = agonist 8 μM, platelet-rich plasma
# [6] = agonist 20 μM, platelet-rich plasma
# [7] = agonist 50 μM, platelet-rich plasma
# [8] = agonist 100 μM, platelet-rich plasma
# [9] = agonist 10 μg/ml, platelet-rich plasma
# [10] = agonist 1 U/ml, washed platelets
Compound,"platelet aggregation in response to PMA, A23187 or thrombin [3]","platelet aggregation in response to PMA, A23187 or thrombin [4]",platelet aggregation in response to agonist (dose dependence) [3],irreversible platelet aggregation at higher agonist concentrations [4],irreversible platelet aggregation at low agonist concentrations [4],"ATP release [1, 8]","ATP release [2, 8]",other results
CNc1ccc2oc(C[C@H]3O[C@@]4(CC[C@H]3C)O[C@H]([C@H](C)C(=O)c3ccc[nH]3)[C@H](C)C[C@H]4C)nc2c1C(=O)O [A23187],aggregated normally,aggregated normally,,,,,,"ATP release [1, 5]: 9.2 ± 3.1; ATP release [2, 5]: 7.3 ± 3.0"
"Nc1ncnc2c1ncn2[C@@H]1O[C@H](COP(=O)(O)OP(=O)(O)O)[C@@H](O)[C@H]1O [ADP, adenosine 5′-diphosphate]",,,dose-dependently aggregated,induced irreversible aggregation,failed to irreversibly aggregate,,,"ATP release [1, 6]: 0.8 ± 0.1; ATP release [1, 7]: 2.6 ± 0.8; ATP release [2, 6]: 0.2 ± 0.1; ATP release [2, 7]: 1.3 ± 0.3"
"CCCCCCCCCCCCCC(=O)O[C@@H]1[C@@H](C)[C@@]2(O)[C@@H](C=C(CO)C[C@]3(O)C(=O)C(C)=C[C@@H]23)[C@@H]2C(C)(C)[C@]12OC(C)=O [PMA, phorbol-12-myristyl-13-acetate]",aggregated normally,aggregated normally,,,,2.3 ± 0.4,1.9 ± 0.6,
CCCCC[C@H](O)/C=C/[C@@H]1[C@@H](C/C=C\CCCC(=O)O)[C@H]2CO[C@@H]1C2 [U46619],,,dose-dependently aggregated,induced irreversible aggregation,failed to irreversibly aggregate,8.2 ± 2.0,7.6 ± 2.3,"ATP release ([1]; agonist 10 μM, platelet-rich plasma): 6.5 ± 1.5"
Collagen,,,dose-dependently aggregated,induced irreversible aggregation,failed to irreversibly aggregate,,,"ATP release ([1]; agonist 1 μg/ml, platelet-rich plasma): 1.8 ± 0.3; ATP release [1, 9]: 10 ± 1.0; ATP release [2, 9]: 11 ± 0.8"
Thrombin,stimulated platelet aggregation comparably in both genotypes,stimulated platelet aggregation comparably in both genotypes,,,,,,"ATP release [1, 10]: 17 ± 1.6; ATP release [2, 10]: 11 ± 1.2"
